This passage reports GI50 and TGI results from PubChem BioAssay (NCI).

Molecules are shown by their SMILES. Where “and” joins values, the source holds several entries; their conditions need not be identical. Identical values can stand only once.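 Method: 48-hour compound exposure of cells in 96-well plates, five concentrations, linear interpolation of endpoints. At the GI50, growth is halved. TGI marks complete inhibition of growth.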

Among the test systems are SN12C renal; SK-MEL-5 melanoma; MALME-3M melanoma; UO-31 renal; RPMI-8226 leukemia; HCT-116 colon; DU-145 prostate; SK-OV-3 ovarian; HOP-92 NSCLC; K-562 leukemia.
What all share (assay): NCI anticancer screen, dose series, 48 h

With `Cn1c(=O)c2[nH]c(COc3ccc(C(C)(C)C)cc3)nc2n(C)c1=O`, the GI50 in the test on SN12C renal is 33.4 µM; in the test with SK-MEL-5 melanoma it was 4.68 µM; with MALME-3M melanoma, 18.2 µM; with UO-31 renal it was 13.6 µM; in the test on RPMI-8226 leukemia it was 1.08 µM; with HCT-116 colon, 10.2 µM. Moreover, the GI50 is 17.7 µM with DU-145 prostate, 51.6 µM in the test on SK-OV-3 ovarian, 0.428 µM in the test with HOP-92 NSCLC and 3.28 µM in the test on K-562 leukemia. In addition, the TGI is above 100 µM in the test with SN12C renal; 20.6 µM with SK-MEL-5 melanoma; 58.8 µM in the test with MALME-3M melanoma; 89.5 µM in the test on UO-31 renal; 18.4 µM in the test with RPMI-8226 leukemia; above 100 µM with HCT-116 colon. Further, the TGI with DU-145 prostate was above 100 µM; with SK-OV-3 ovarian, above 100 µM; in the test with HOP-92 NSCLC, 30.6 µM; in the test with K-562 leukemia, above 100 µM.
For the compound `COc1ccc(/C=C\c2cc(OC)c(OC)c(OC)c2)c(NS(=O)(=O)c2ccc(C)cc2)c1O`, the GI50 in the test on SN12C renal was 0.0736 µM; in the test with SK-MEL-5 melanoma it was 0.0359 µM; with MALME-3M melanoma it was 16.8 µM; in the test with UO-31 renal, 0.335 µM; in the test with RPMI-8226 leukemia, 0.0502 µM; in the test with HCT-116 colon it was 0.0357 µM. Also, the GI50 in the test on DU-145 prostate is 0.0399 µM; in the test on SK-OV-3 ovarian, 0.685 µM; with HOP-92 NSCLC it was 0.102 µM; in the test on K-562 leukemia, 0.0409 µM. Moreover, the TGI with SN12C renal was above 76.2 µM; with SK-MEL-5 melanoma, 0.195 µM; in the test on MALME-3M melanoma it was above 100 µM; in the test on UO-31 renal, above 65.8 µM; with RPMI-8226 leukemia, 23.9 µM; in the test with HCT-116 colon, above 100 µM. The TGI in the test with SK-OV-3 ovarian is above 100 µM; with HOP-92 NSCLC it was 27.5 µM; in the test with K-562 leukemia, above 100 µM.
Regarding `O=c1[nH]c(-c2ccc(C(F)(F)F)cc2)nc2c1CSCC2`, the GI50 was above 100 µM in the test with SN12C renal; 88.9 µM with SK-MEL-5 melanoma; 30.9 µM in the test on MALME-3M melanoma; 5.43 µM in the test with UO-31 renal; above 100 µM with RPMI-8226 leukemia; above 63.7 µM in the test on HCT-116 colon. Besides, the GI50 in the test on DU-145 prostate was above 84.5 µM; with SK-OV-3 ovarian it was 30 µM; in the test on HOP-92 NSCLC, 17.1 µM; in the test on K-562 leukemia, above 100 µM. In addition, the TGI in the test with SN12C renal was above 100 µM; with SK-MEL-5 melanoma, above 100 µM; in the test on MALME-3M melanoma, above 100 µM; in the test with UO-31 renal, above 67.4 µM; in the test on RPMI-8226 leukemia, above 100 µM; in the test with HCT-116 colon, above 100 µM. The TGI in the test with DU-145 prostate was above 100 µM; in the test with SK-OV-3 ovarian it was 99.8 µM; with HOP-92 NSCLC, 46.3 µM; in the test with K-562 leukemia, above 100 µM.
In the case of `Cc1nc(NC(=O)N2CCC[C@H]2C(N)=O)sc1-c1ccnc(C(C)(C)C(F)(F)F)c1`, the GI50 was 6.43 µM and > 10 µM in the test on SN12C renal; 11.8 µM and > 10 µM in the test on SK-MEL-5 melanoma; 1.8 µM and > 10 µM in the test with MALME-3M melanoma; 2.48 µM and 2.07 µM in the test with UO-31 renal; 16.1 µM and > 10 µM in the test with RPMI-8226 leukemia; 2.87 µM and 3.48 µM in the test on HCT-116 colon. Moreover, the GI50 in the test with DU-145 prostate is 4.84 µM and 9.16 µM; in the test on SK-OV-3 ovarian, 0.134 µM and 0.262 µM; with HOP-92 NSCLC, 0.0598 µM and 0.13 µM; with K-562 leukemia, 28.1 µM and > 10 µM. For the same compound, the TGI in the test with SN12C renal is above 100 µM; in the test on SK-MEL-5 melanoma, 24.6 µM and > 10 µM; in the test with MALME-3M melanoma, 22.4 µM and > 10 µM; in the test with UO-31 renal it was 36.7 µM and > 10 µM; in the test on RPMI-8226 leukemia, 58.5 µM and > 10 µM; with HCT-116 colon it was above 87.3 µM. In addition, the TGI in the test on DU-145 prostate was above 73.1 µM; in the test with SK-OV-3 ovarian it was 5.98 µM and 6.37 µM; in the test on HOP-92 NSCLC, 1.52 µM and 2.89 µM; in the test on K-562 leukemia, above 100 µM.
As to `CC1OC(O)C(O)C(O)C1O` (stereo not drawn), the TGI in the test on SN12C renal, with SK-MEL-5 melanoma, in the test with MALME-3M melanoma, in the test on UO-31 renal, in the test on RPMI-8226 leukemia and in the test on HCT-116 colon was above 100 µM throughout. Moreover, the TGI in the test on DU-145 prostate, with SK-OV-3 ovarian, in the test on HOP-92 NSCLC and in the test with K-562 leukemia was above 100 µM in each case.
In the case of `O=C(/C=C/c1ccco1)Nc1ncc(Cc2ccc(F)cc2)s1`, the GI50 in the test with SN12C renal was 0.189 µM; in the test on SK-MEL-5 melanoma, 0.0476 µM; with MALME-3M melanoma, 0.249 µM; in the test on UO-31 renal, 0.194 µM; with RPMI-8226 leukemia it was 0.0721 µM; in the test with HCT-116 colon, 0.0408 µM. Moreover, the GI50 is 0.0901 µM in the test on DU-145 prostate, 0.0455 µM in the test with SK-OV-3 ovarian, 8.56 µM with HOP-92 NSCLC and 0.0385 µM in the test with K-562 leukemia. The TGI in the test with SN12C renal, in the test on MALME-3M melanoma, in the test with UO-31 renal, in the test on RPMI-8226 leukemia, in the test on HCT-116 colon and in the test on DU-145 prostate was above 100 µM in each case. In addition, the TGI with SK-OV-3 ovarian, in the test on HOP-92 NSCLC and in the test on K-562 leukemia was above 100 µM each time.
Take `COc1ccc(C(O)c2cc3c(N)c(C(=O)Nc4cccc(Br)c4)sc3nc2C)cc1` (stereo not drawn): the GI50 is 0.21 µM in the test on SN12C renal; 0.123 µM in the test on SK-MEL-5 melanoma; 0.799 µM with MALME-3M melanoma; 0.271 µM in the test on UO-31 renal; 0.371 µM in the test on RPMI-8226 leukemia; 0.107 µM in the test with HCT-116 colon. In addition, the GI50 is 0.128 µM with DU-145 prostate, 0.197 µM with SK-OV-3 ovarian, 0.554 µM with HOP-92 NSCLC and 0.107 µM in the test with K-562 leukemia. Besides, the TGI in the test with SN12C renal is above 31.9 µM; with SK-MEL-5 melanoma, 0.47 µM; in the test on MALME-3M melanoma, above 52.7 µM; in the test on UO-31 renal it was above 31.3 µM; in the test with RPMI-8226 leukemia, 33.6 µM; with HCT-116 colon, 16.8 µM. Moreover, the TGI was 11.9 µM in the test with DU-145 prostate, above 65.1 µM in the test with SK-OV-3 ovarian, 21.3 µM in the test on HOP-92 NSCLC and above 100 µM in the test with K-562 leukemia.
In the case of `Oc1ccccc1-n1c(-c2ccccc2)ccc1-c1ccccc1`, the GI50 with SN12C renal is 3.62 µM; in the test with SK-MEL-5 melanoma, 3.05 µM; with MALME-3M melanoma, 2.9 µM; in the test with UO-31 renal it was 2.17 µM; in the test with RPMI-8226 leukemia it was 3.71 µM; with HCT-116 colon, 4.71 µM. Moreover, the GI50 is 7 µM with DU-145 prostate, 8.93 µM with SK-OV-3 ovarian, 1.94 µM with HOP-92 NSCLC and 5.17 µM in the test on K-562 leukemia. In addition, the TGI is 16 µM with SN12C renal; above 100 µM with SK-MEL-5 melanoma; 16.2 µM with MALME-3M melanoma; 10.6 µM with UO-31 renal; 17.9 µM in the test with RPMI-8226 leukemia; 16.6 µM in the test on HCT-116 colon. The TGI is 19.7 µM in the test with DU-145 prostate, above 100 µM in the test on SK-OV-3 ovarian, 8.54 µM in the test on HOP-92 NSCLC and 64.3 µM in the test with K-562 leukemia.
